In patent publication US20240238228A1, “COMPOSITIONS AND METHODS FOR TREATING ALLERGIES AND INFLAMMATORY CONDITIONS” (UNIVERSITY OF PITTSBURGH-OF THE COMMONWEALTH SYSTEM OF …, priority 2021, published 2024):
No end group written: not given here.

How the values were obtained:
[1] = target: calpain released into cell-free supernatants by IgE-activated murine BMMCs (murine) (UniProt O35350); test: cell-based or functional assay
IL-10 = IL-10 degradation assays on BMMC supernatants; assay type: cell-based, murine; conditions: supernatants collected 10 min after activation, pulsed with Ac-calpastatin 30 min
Experimental: To detect early IL-10 release, 4×10^6 cells were incubated in serum free RPMI for a minimum of three hours prior to IgE loading and activation with DNP-HSA (100 ng/mL). Supernatants were collected and IL-10 was detected in accord with manufacturer's recommendations using 1.0% BSA to block and a top standard of 250 pg/mL. The lower limit of detection was 7.8 pg/mL. To evaluate the role of relationship between calpain and IL-10, cell-free supernatants were collected 10 min after activation and incubated with Ac-calpastatin (Ac-Cal; 20 μg/mL, Cayman) or vehicle control. […] To directly test IL-10 proteolysis, MCs were activated for 45 min, cell free supernatants were collected and pulsed with recombinant IL-10 (Biolegend, 250 pg/mL).

calpain = test: Calpain inhibition in cell-free BMMC supernatants pulsed with inhibitor; assay type: biochemical, murine; conditions: Ac-calpastatin 20 μg/mL, 30 min; mean±SEM from n=3
Experimental: (§1) Calpain activity was detected from cell-free supernatants using the Calpain-Glo Protease Assay (Promega). Supernatants were incubated with substrate for 10 min prior to luminescent detection. In some experiments, glyburide or vehicle (0.1% DMSO) were added to cells 10 min prior to Ag. ELISA kits from eBioscience (IL-13), BioLegend, (TNF and IL-10) or RayBiotech (NKA) and used in accord with the manufacturer's recommendations.
To detect early IL-10 release, 4×10^6 cells were incubated in serum free RPMI for a minimum of three hours prior to IgE loading and activation with DNP-HSA (100 ng/mL). Supernatants were collected and IL-10 was detected in accord with manufacturer's recommendations using 1.0% BSA to block and a top standard of 250 pg/mL. The lower limit of detection was 7.8 pg/mL. To evaluate the role of relationship between calpain and IL-10, cell-free supernatants were collected 10 min after activation and incubated with Ac-calpastatin (Ac-Cal; 20 μg/mL, Cayman) or vehicle control. Ac-Cal containing supernatants were further incubated for 30 min prior to IL-10 quantification by ELISA. To directly test IL-10 proteolysis, MCs were activated for 45 min, cell free supernatants were collected and pulsed with recombinant IL-10 (Biolegend, 250 pg/mL).

MCs = conditions: previous studies; cited from earlier work
peanut allergy = test: Peanut allergy desensitization by microneedle arrays; assay type: in vivo, mouse; conditions: mouse, in vivo
IL-33 = conditions: mouse, in vivo
NKA = NKA in skin homogenates by ELISA; assay type: in vivo, mouse; conditions: IL-10 1.0 ng/ear; without PCA induction
Experimental: as §1
Mouse ears were measured with a micrometer then sensitized with IgE in filter-sterilized PBS (Sigma, clone SPE-7, 20 ng/50 μl/ear) or vehicle control. Twenty-four hours later mice were treated with NKA (10 μg/ear, intradermal) or vehicle (PBS) 3 h prior to Ag (DNP-HSA 100 μg, in 200 μl, intravenous in saline) administration. Data are presented as change in ear thickness between baseline and the indicated time. Where indicated, mice were treated with recombinant murine IL-10 (Peprotech, 1.0 ng/ear) at the time of IgE injection or treated with glyburide (2.5 mg/kg, i.p), 3 h prior to Ag administration.
Cytokine expression in the skin was investigated 24 h after PCA induction. […] Protein concentrations were quantified using the BCA Protein Assay (Pierce). […] Densitometry values subtracting the median background from individual spot areas were calculated with ImageStudioLite v5.2.5. […]

recombinant murine IL-10 = test: Degradation of recombinant IL-10 by purified calpain (Western blot); assay type: biochemical; conditions: rIL-10 incubated with increasing concentrations of purified calpain, 60 min
Experimental: The IL-10 degrading capacity of calpain, recombinant murine IL-10 (Peprotech) was incubated with human calpain I (Athens Research and Technology) for 60 min at 37° C., then denatured with Laemelli Buffer (BioRad) and resolved on 10% Tris-Glycine SDS-PAGE gels (BioRad). Proteins were transferred to […] PVDF membranes (BioRad), blocked for 1 h with Odyssey Blocking Buffer (LI-COR) and probed overnight with goat anti-mouse IL-10 antibody (RnD Systems). Ant-IL10 was detected with donkey anti-goat 800CW (LI-COR) and visualized on a LI-COR Imaging System. Densitometry was calculated using ImageStudioLite v5.2.5 (Licor). Values are presented as (rIL-10+calpain)/rIL-10 alone)*100.

Ac-calpastatin (Cayman) (from UniProt P20810 184-210) (peptide)
calpain activity [1]: 20.1%

Ac-calpastatin: a calpain inhibitor (Cayman) (Ac-DPMSSTYIEELGKREVTIPPKYRELLA; not fully specified (C-terminus)) [reference compound]
IL-10 levels in supernatants from IgE-activated BMMCs (IL-10): partially restored
inhibition of calpain activity (calpain): 20.1±1.72%

NKA(4-10): a naturally truncated form of NKA [reference compound]
effect on MCs (β-hexosaminidase or histamine release as readouts) (MCs): no effect

botulinum toxin A
allergy to peanut allergen after CPE challenge (peanut allergy): desensitizes
IL-33 expression in skin (IL-33): reduces IL-33 expression

B1: recombinant IL-10: recombinant murine IL-10 (Peprotech) (protein)
chain: SRGQYSREDNNCTHFPVGQSHMLLELRTAFSQVKTFFQTKDQLDNILLTDSLMQDFKGYLGCQALSEMIQFYLVEVMPQAEKHGPEIKEHLNSLGEKLKTLRMRLRRCHRFLPCENKSKAVEQVKSDFNKLQDQGVYKAMNEFDIFINCIEAYMMIKMKS
steady state NKA in skin homogenates (NKA): significantly increased

B2: calpain: purified human calpain I (Athens Research and Technology), IL-10 degrading cysteine protease (protein)
chain: SEEIITPVYCTGVSAQVQKQRARELGLGRHENAIKYLGQDYEQLRVRCLQSGTLFRDEAFPPVPQSLGYKDLGPNSSKTYGIKWKRPTELLSNPQFIVDGATRTDICQGALGDCWLLAAIASLTLNDTLLHRVVPHGQSFQNGYAGIFHFQLWQFGEWVDVVVDDLLPIKDGKLVFVHSAEGNEFWSALLEKAYAKVNGSYEALSGGSTSEGFEDFTGGVTEWYELRKAPSDLYQIILKALERGSLLGCSIDISSVLDMEAITFKKLVKGHAYSVTGAKQVNYRGQVVSLIRMRNPWGEVEWTGAWSDSSSEWNNVDPYERDQLRVKMEDGEFWMSFRDFMREFTRLEICNLTPDALKSRTIRKWNTTLYEGTWRRGSTAGGCRNYPATFWVNPQFKIRLDETDDPDDYGDRESGCSFVLALMQKHRRRERRFGRDMETIGFAVYEVPPELVGQPAVHLKRDFFLANASRARSEQFINLREVSTRFRLPPGEYVVVPSTFEPNKEGDFVLRFFSEKSAGTVELDDQIQANLPDEQVLSEEEIDENFKALFRQLAGEDMEISVKELRTILNRIISKHKDLRTKGFSLESCRSMVNLMDRDGNGKLGLVEFNILWNRIRNYLSIFRKFDLDKSGSMSAYEMRMAIESAGFKLNKKLYELIITRYSEPDLAVDFDNFVCCLVRLETMFRFFKTLDTDLDGVVTFDLFKWLQLTMFA
amount of IL-10 detected by Western blot (recombinant murine IL-10): inversely proportional to calpain concentration
